How the values were obtained:
MM.1S cells = experiment: CellTiter-Glo cell viability assay; assay type: cell-based, human; settings: for EC50: Homo sapiens, MM1.S, 72 h, n.e.: no effect (≤25 % effect up to 50 μM), read-out: EC50 MM.1S; for antiproliferative activity reduced compared to vorinostat by a factor: MM.1S cells
Method: For this purpose, the dilution series were prepared in 200-fold concentration in DMSO and further diluted to 10-fold concentration in medium. The final DMSO concentration was 0.5%. The toxicity of compounds was determined after 72 h using the CellTiter-Glo 2.0 Cell Viability Assay (Promega, Madison, WI, USA, #G9242) according to the manufacturer´s protocol. Subsequently, the luminescence was measured using a Tecan Spark (Tecan Group AG, Maennedorf, Swiss) and the half maximal effective concentration (EC50) was determined by plotting dose response curves and nonlinear regression with GraphPad Prism (GraphPad Software, San Diego, CA, USA). […] Cellular HDAC Inhibition Assay […] with minor changes. […] The DMSO-stock solutions were used to perform a serial dilution in DMSO. […] 10 µL of the substrate solution was added and incubated for 3 h under cell culture conditions. […] S8

MDA-MB-231 cells = experiment: MTT cell viability assay; assay type: cell-based, human; settings: 72 h, n.e.: no effect (≤25 % effect up to 50 μM); for EC50: Homo sapiens, MDA-MB-231
Method: (§1) GraphPad Prism (GraphPad Software).
(§2) 2.8. MTT Cell Viability Assay
(§3) U-87MG cells (3 × 10^3 cells/well) or MDA-MB-231 cells (5 × 10^3 cells/well) were seeded in 96-well flat-bottomed plates. After 24 h the cells were incubated with the stock solutions of the respective compounds dissolved in DMSO (highest DMSO concentration, 0.5%) to reach the final concentrations as indicated. Controls received DPBS or DMSO. Following a 71 h incubation period 20 µl of a freshly prepared 5 mg/ml MTT (3-(4,5-dimethylthiazol-2-yl)-2,5-diphenyltetrazolium bromide, AppliChem GmbH, Darmstadt, Germany) solution were added into each well. The supernatant was discarded after 1 h incubation at 37 °C and the precipitated formazan was dissolved in 200 µl DMSO/well. Absorption was measured at 570 nm with background subtraction at 690 nm using a photometric microplate reader (Thermo Scientific Multiskan EX, Thermo Fisher Scientific). Data was further subtracted by the DMSO control and normalized on DPBS. The half-maximal effective concentration (EC50) was determined by plotting dose response curves and nonlinear regression with GraphPad Prism (GraphPad Software). […]

U-87MG cells = experiment: MTT cell viability assay; assay type: cell-based; settings: Homo sapiens, 72 h, n.e.: no effect (≤25 % effect up to 50 μM)
Method: as §1, §2, §3

HDAC1 = HDAC1 (Homo sapiens, UniProt Q13547); experiment: Simple Western immunoassay, HDAC1 levels in MM.1S cell lysates; assay type: cell-based; set-up: endogenous in cells; host or cells: MM.1S; settings: MM.1S cells, 10 μM; for reduction of HDAC1 levels: 24 h
Method: Figure 3 Initial degradation screening of HDAC1 and 6 by DCAF11‐recruiting PROTACs by Simple Western™ immunoassay analysis of MM.1S cell lysates. MM.1S cells were treated with the indicated compound (10 μM) or vehicle (DMSO) for 24 h. […] Bottom: Representative images from a total of n=3 biological replicates, labeled with spacer type; w/o: without spacer.
2. Biological Experiments
No unexpected or unusually high safety hazards were encountered.
The human multiple myeloma cell line MM.1S (CRL-2974) was obtained from American Type Culture Collection (ATCC, Manassas, VA, USA). The semi-adherent cells were cultivated in RPMI 1640 medium (Catalog#21875-034, Gibco, ThermoFisher Scientific Inc., Waltham, MA, USA) supplemented with 10% FBS (PAN Biotech GmbH; Aidenbach, Germany), 100 IU/mL penicil lin, 0.1 mg/mL streptomycin (PAN Biotech GmbH) and 1 mM sodium pyruvate (ThermoFisher Scientific Inc.). […]
(PAN Biotech GmbH). All cells were cultured at 37 °C in a 5% CO2 atmosphere. Incubation times, as part of assay protocols, were performed under these conditions as well. The semi-adherent MM.1S were detached mechanically by using a cell scraper and the adhered […] were trypsinased by trypsin/EDTA (0.05%/0.02% in DPBS, PAN Biotech GmbH) whereas the U-87MG were detached by […]
2.2. Simple Western™ Immunoassay
For the cell lysates, MM.1S (0.5 × 10^6 cells/mL) or U-87MG (0.18 × 10^6 cells/mL) cells were seeded and incubated with the indicated concentration of compound or vehicle (DMSO) for the given time. The adherent cells were cultured for 24 h under cell culture conditions for attachment before treatment. Cell lysis was performed with Cell Extraction Buffer (10 mM Tris, pH 7.4, 100 mM NaCl, 1 mM EDTA, […]
SDS, 0.5% deoxycholate; Catalog# FNN0011, Thermo Fisher Scientific Inc., Waltham, MA, USA) with addition of Halt Protease Inhibitor Cocktail (100×) (Catalog# 78429, Life Technologies GmbH, Carlsbad, CA, USA) and phenylmethanesulfonyl fluoride (Catalog# 10837091001, Sigma-Aldrich, St.
Louis, MO, USA) according to manufacturer´s instructions. Protein content was determined by Pierce™ BCA Protein Assay Kit (Catalog# 23225, Thermo Fisher Scientific Inc.) according to manufacturer´s guidelines. Cell lysates were diluted to a final concentration of 1 mg/mL and denatured according to manufacturer’s guidelines. Anti-HDAC1 (Catalog# 5356S, Cell Signaling Technology, Denver, MA, USA), anti-HDAC6 (Catalog#7558S, Cell Signaling Technology) and anti-GAPDH (Catalog# 2118S, […]
Fluorescence Separation 8x25 Capillary Cartridges (Catalog# SM-FL004-1, Protein Simple, Bio-Techne, Minneapolis, MN, USA) were used for separation and the Anti-Mouse Detection Module (Catalog# DM-002, Protein Simple) was used for detection with addition of 20x Anti-Rabbit HRP […]
Conjugate (Catalog# 043-426, Protein Simple) according to manufacturer´s instructions. The assay was performed with the Jess Simple Western System (catalog# 004-650, Protein Simple), according to manufacturer´s settings. Evaluation and quantification was performed with the compass software (6.2.0, Protein Simple). GraphPad Prism (GraphPad Software, San Diego, CA, USA) was used for normalization, statistical analysis and bar graph creation. Significance testing was performed with a one-way analysis of variance (ANOVA). […]
of each mean compared to a reference mean value. […]
AMC (Catalog# 233691-67-3, BLD pharma) was prepared with and without IGEPAL CA-630 (0.5%, Catalog# J61055, Alfa Aesar). 10 µL of the substrate solution was added and incubated for 3 h under cell culture conditions. The reaction was stopped with 100 µL of stop solution (50 mM Tris-HCl, […]
Trypsin) and incubated for 1.5 h under cell culture conditions. The fluorescence signal was measured by a FLUOstar OPTIMA microplate reader (BMG labtech, Ortenburg, Germany) at excitation of λ = 355 nm and emission of λ = 460 nm. All Compounds were tested in two independent experiments in duplicates and IC50 was determined by nonlinear regression with GraphPad Prim.

Chain of HDAC1 (Q13547 whole entry): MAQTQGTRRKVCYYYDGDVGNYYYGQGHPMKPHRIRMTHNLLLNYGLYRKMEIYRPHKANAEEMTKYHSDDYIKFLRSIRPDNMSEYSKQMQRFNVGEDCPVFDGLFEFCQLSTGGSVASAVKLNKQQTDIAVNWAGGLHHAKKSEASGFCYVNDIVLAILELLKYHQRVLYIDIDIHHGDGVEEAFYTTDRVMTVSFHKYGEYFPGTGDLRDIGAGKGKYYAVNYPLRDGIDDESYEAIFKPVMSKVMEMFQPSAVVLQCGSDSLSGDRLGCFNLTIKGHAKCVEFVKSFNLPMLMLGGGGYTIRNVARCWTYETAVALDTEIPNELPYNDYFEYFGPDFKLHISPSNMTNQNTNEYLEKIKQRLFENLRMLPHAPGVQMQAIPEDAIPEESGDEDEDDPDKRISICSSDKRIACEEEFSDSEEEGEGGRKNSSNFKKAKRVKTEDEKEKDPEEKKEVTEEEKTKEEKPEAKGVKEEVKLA

## O=C(CCCCCCNC(=O)c1ccc(N(C(=O)CCl)C(C(=O)NCc2ccccc2)c2ccc(Cl)c(Cl)c2)cc1)NO (stereo not shown) [Compound 2]
MM.1S cells
  EC50: 1.5 ± 0.1 µM
  antiproliferative activity reduced compared to vorinostat by a factor: 3 – 6
MDA-MB-231 cells
  EC50: 8.8 ± 3.2 µM
U-87MG cells
  EC50: 12 ± 3 µM
HDAC1
  reduction of HDAC1 levels: 55%

## O=CN(CCCCCCCCCCCC(=O)Nc1ccc(C(=O)NCCCCCCC(=O)NO)cc1)C(C(=O)NCc1ccccc1)c1ccc(Cl)c(Cl)c1 (stereo not shown) [Compound 1j-nc]
MM.1S cells
  EC50: 8.6 ± 1.5 µM
MDA-MB-231 cells
  EC50 MDA-MB-231: n.e.
MDA-MB-231 cells; listed as 1j‐nc
  EC50 MDA-MB-231: no activity
U-87MG cells
  EC50: 43 ± 18 µM
HDAC1; 14 h
  effect on HDAC1 protein levels: not able to affect the protein levels of HDAC1 and 6

## O=C(CCCCCCNC(=O)c1ccc(NC(=O)CCCCCCCCCCCN(C(=O)CCl)C(C(=O)NCc2ccccc2)c2ccc(Cl)c(Cl)c2)cc1)NO (stereo not shown) [Compound 1j]
MM.1S cells
  EC50: 2.8 ± 0.1 µM
  antiproliferative activity reduced compared to vorinostat by a factor: 3 – 6
MDA-MB-231 cells
  EC50: 28 ± 10 µM
U-87MG cells
  EC50: 30 ± 5 µM
HDAC1
  reduction of HDAC1 levels: 71%
HDAC1; after 6 h
  time dependent degradation of HDAC1: significant degradation

Reference: paper PMC12091851, “Replacing a Cereblon Ligand by a DDB1 and CUL4 Associated Factor 11 (DCAF11) Recruiter Converts a Selective Histone Deacetylase 6 PROTAC into a Pan‐Degrader” (Chemmedchem, 2025)
